Data set [1] in a line: Pharmacokinetic (DMPK) study of Apt-1, intracerebroventricular micro-osmotic pump. The conditions noted are these: mouse, hippocampus, ICV pump 20 mM Apt-1, 0.25 μl/h. The data set is classed as in vivo, mice. The method, then:
Apt-1 was delivered using intracerebroventricular Alzet micro-osmotic pump (20 mM Apt-1, […], release rate: […]). CSF was collected at 1 h, 6 h, and 24 h. Hippocampi were collected at 24 h. The concentrations of Apt-1 were measured by HPLC. The concentration of Apt-1 in hippocampus at 24 h was 6.27 μM. Mean ±s.e.m. (n=3 mice in each group).
WT mice (2 months old) were deeply anesthetized with isoflurane and immobilized in a stereotaxic frame using predetermined coordinates under aseptic conditions. All animals were observed during and after surgery, and an analgesic was administered after surgery. Apt-1 (20 mM, 100 μl, release rate: 0.25 μl/h) was delivered intracerebroventricularly via an ALZET micro-osmotic pump (ALZET Model 1002) and ALZET brain infusion kits into lateral ventricles (ML, −1.0 mm; AP, −0.5 mm; DV, 2.0 mm). The ALZET micro-osmotic pumps were fixed on the skulls of the mice by instant adhesive and the skin incision was closed by suture. At 1 h, 6 h and 24 h after the onset of delivery, cerebrospinal fluid (CSF) was carefully withdrawn by a Hamilton syringe from lateral ventricles (ML, −1.0 mm; AP, −0.5 mm; DV, 2.0 mm) for DMPK analysis. The mice were sacrificed at 24 h and the hippocampi were dissected for DMPK analysis. […] The concentrations of Apt-1 in collected samples were measured by HPLC as a custom service by the Scripps Research Institute Florida.

A further data set has as its system mice injected with mTNFα. The experiment in a line: In vivo delivery of TNFα, systemic inflammation model. The following applies: Apt-1 20 mg/kg i.p. 30 min before mTNFα 9.5 μg i.v. Here is the method:
Control mice (n=9) received an equal amount of vehicle before mTNFα challenge. Mean s.e.m. Two-way ANOVA. ***P=0.0007.
WT mice (n=10, male, 8 weeks of age) were injected intravenously via the tail vein with mTNFα (9.5 μg/mouse) after an intraperitoneal injection of Apt-1 (20 mg/kg) 30 min before. Control mice (n=9) received an equal amount of vehicle 30 min before mTNFα challenge. Kaplan Meier survival curve was determined. 25. Vps34 lipid kinase assay HEK293T cells were transfected with Flag-Beclin 1 for 18 h and then treated with ICCB-19, ICCB-19i, Apt-1 (10 μM) for another 6 h. Flag-Beclin 1 was immunoprecipitated by anti-Flag to isolate Beclin 1/Vps34 complex. Immunoprecipitated beads were added with sonicated phosphatidylinositol (1 μl of 5 mg) and ATP (1 μl of 10 mM) in 30 μl reaction buffer (40 mM Tris (pH 7.5), 20 mM MgCl2, 1 mg/ml BSA) for 30 min at room temperature. Wortmannin (10 μM) was used as a control and added into the reaction to inhibit Vps34. The conversion of ATP into ADP levels was measured by an ADP-Glo Kinase Assay Kit (Promega) according to the manufacturer's instructions.

Data set [2] deals with brain slices from PS19 mice. The data set is described as follows: Cultured organotypic brain slices from PS19 mice. Type of data set: cell-based. The following applies: treatment for 3 h. Here is the method:
FIG. 14g contains epresentative images and quantification of cultured brain slices from PS19 mice (4 months old) stained with phospho-tau (red) and cell nuclei (DAPI/blue). Mean ±s.e.m. from biological replicates (n=5). Two-tailed t-test.
PS19 mice (4 months old) were anesthetized with isoflurane prior to decapitation. The brain was removed and immediately immersed in ice-cold cutting solution (2.5 mM KCl, 5 mM MgCl2, 11 mM D-Glucose, 238 mM Sucrose, 26 mM NaHCO3, 1 mM NaH2PO4, 1 mM CaCl2)). The cerebellum was trimmed off and the caudal end of the brain was glued onto the cutting table of the vibratome (LEICA VT1000 S, Germany). The brain was cut in coronal slices of […] with an amplitude of 1.5 mm, a frequency of 75 Hz and a velocity of 0.1 mm/s. The slices were collected and stored in ice-cold cutting solution before floating onto semi-porous membrane inserts (Millipore, Millicell-CMLow Height Culture Plate Inserts, Schwalbach, Germany). Slices were cultured at 37° C. and 5% CO2 in a culture medium consisting of 394 ml MEM, 10% normal horse serum, 5 mg/mL penicillin, 5 mg/mL streptomycin, 2.5 ml L-glutamine, 1 mM MgSO4, 11 mM D-Glucose, 238 mM Sucrose, 5 mM NaHCO3, 1 mM CaCl2), 26.6 mM HEPES, 0.024 ml 25% ascorbic acid and 0.5 mg Insulin. Medium was changed every other day. Slices are maintained for 14 days in vitro prior to treatment.

A further data set relates to RIPK1 in complex I. The data set is described as follows: RIPK1 activation in complex I of TNFα-stimulated MEFs. The data set is classed as cell-based, mouse. The following applies: 10 μM. Here is the method: Cells were seeded in 15 cm dishes and treated as indicated with Flag-TNFα ([…]). To terminate treatment, media was removed and plates were washed with 50 mL of ice cold PBS. Plates were frozen at −80C until all time points were acquired. Plates were thawed on ice and cells were lysed in 0.5% NP-40 lysis buffer (50 mM Tris-HCl pH 7.5, 150 mM NaCl and 0.5% NP-40) supplemented with protease inhibitors and N-Ethylmaleimide (2.5 mg/ml). Cell lysates were rotated at 4° C. for 30 min then clarified at 4° C. at 14,000 rpm for 30 min. Proteins were immunoprecipitated from cleared protein lysates with 20 μl of anti-Flag M2 beads (Sigma) with rotation overnight at 4° C. 4×washes in 0.5% NP-40 buffer with N-Ethylmaleimide were performed, and samples eluted by boiling in 50 μl 1×SDS loading buffer. For complex-II purification cells were seeded in 10 cm dishes and treated as indicated using media containing TNFα (10 ng/ml) and zVAD (20 μM). Cells were lysed on ice in 0.5% NP-40 lysis buffer. Cell lysates were rotated at 4C for 30 min then clarified at 4C at 14,000 rpm for 10 min. 20 μl of protein G Sepharose (Sigma), after pre-blocking for 1 h with lysis buffer containing 1% BSA, were incubated with FADD antibody ([…]) and the mixture was incubated in rotation with cleared protein lysates 4 h at 4C. […]

In data set [1], `CN1CCN=C1SC(C(=O)NC1CCCCCC1)c1ccccc1` (stereo not shown) [Compound 30] gave a concentration at 24 h of 6.27 µM. In the data set with mice injected with mTNFα, the “survival following intravenously-delivered TNFα” value is reported as “increased survival”. For the same compound, the “autophagy and accumulation of mutant tau in brain slices” value in data set [2] is “induced autophagy and reduced the accumulation of mutant tau”.
On to `O=C(CSC1=NCCN1)NC1CCCCCC1` [ICCB-19], for which the “activation of RIPK1 in complex I induced by TNFα” value in the data set on RIPK1 in complex I is given as “reduced the rapid activation of RIPK1”.

Source of the values: patent US20230219898A1, “COMPOUNDS AND METHODS FOR BLOCKING APOPTOSIS AND INDUCING AUTOPHAGY” (President and Fellows of Harvard College, priority 2020, published 2023).
